The values that follow come from patent publication US20240270762A1, “PENICILLIN-BINDING PROTEIN INHIBITORS” (priority 2021, published 2024).

Molecules are shown by their SMILES. Converted amounts (≈) assume the structure as drawn. Read-outs that look alike come from different tables or passages of the source.

Holding throughout (format): cell-based
One assay relates to A. baumannii CDC-0083. Briefly: microbe, parasite or virus in culture. As to conditions: Acinetobacter baumannii, CDC0083, read-out: MIC, A. baumannii CDC-0083.
The test system of the next assay is E. coli 901C. Nature of the assay: microbe, parasite or virus in culture. As to conditions: Escherichia coli, read-out: MIC E. coli 901C.
For another assay, the system named is K. pneumoniae 848844. Briefly: microbe, parasite or virus in culture. The settings on record: Klebsiella pneumoniae, 848844, read-out: MIC K. pneumoniae 848844.
The next assay has as its system K. pneumoniae UMM. Nature of the assay: microbe, parasite or virus in culture. The settings on record: Klebsiella pneumoniae, read-out: MIC K. pneumoniae UMM.
A further assay deals with E. coli ATCC 25922. Briefly: microbe, parasite or virus in culture. As to conditions: Escherichia coli, ATCC25922, read-out: MIC E. coli 25922.
The next assay concerns A. baumannii ATCC 19606. Nature of the assay: microbe, parasite or virus in culture. The settings on record: Acinetobacter baumannii, ATCC19606, read-out: MIC, A. baumannii ATCC 19606.
Another assay relates to K. pneumoniae SI-117. Briefly: microbe, parasite or virus in culture. As to conditions: Klebsiella pneumoniae, SI117, read-out: MIC K. pneumoniae SI-117.
In a further assay the test system is P. aeruginosa ATCC 27853. Briefly: microbe, parasite or virus in culture. The settings on record: Pseudomonas aeruginosa, ATCC27853, read-out: MIC P. aeruginosa ATCC 27853.
For the next assay, the system named is P. aeruginosa ATCC 35151. Nature of the assay: microbe, parasite or virus in culture. As to conditions: Pseudomonas aeruginosa, ATCC35151, read-out: MIC P. aeruginosa ATCC 35151.
In the next assay the test system is E. coli D22. Briefly: microbe, parasite or virus in culture. As to conditions: Escherichia coli, D22, read-out: MIC E. coli D22.
A further assay relates to E. coli AG100. Briefly: microbe, parasite or virus in culture. As to conditions: Escherichia coli, AG100, read-out: MIC E. coli AG100.
Assay [1] relates to P. aeruginosa (ΔmexAB-oprM). Briefly: Broth microdilution MIC in CAMHB.
The subject of a further assay is E. coli AG100A. Briefly: Broth microdilution MIC in CAMHB. As to conditions: Escherichia coli, read-out: MIC E. coli AG100A.
Where [2] appears, read: Pseudomonas aeruginosa; read-out: MIC P. aeruginosa ΔmexAB-oprM.

On to `O=C(O)c1c(F)ccc2c1OB(O)[C@@H](NC(=O)[C@H](NC(=O)N1CCN(Cc3ccc(O)c(O)c3Cl)C(=O)C1=O)c1ccc(P(=O)(O)O)cc1)C2` (single isomer, unassigned) [Example 160], for which the MIC in the assay on A. baumannii CDC-0083 is less than 1 µg/mL; in the assay on E. coli 901C it was less than 1 µg/mL; in the assay with K. pneumoniae 848844, 32 to 64 µg/mL (≈ 43.6 to 87.1 µM); with K. pneumoniae UMM it was 2 to 4 µg/mL (≈ 2.72 to 5.44 µM); with E. coli ATCC 25922, 2 to 4 µg/mL (≈ 2.72 to 5.44 µM); with A. baumannii ATCC 19606 it was less than 1 µg/mL. Further, the MIC is 8 to 16 µg/mL (≈ 10.9 to 21.8 µM) with K. pneumoniae SI-117; less than 1 µg/mL in the assay on P. aeruginosa ATCC 27853; less than 1 µg/mL in the assay on P. aeruginosa ATCC 35151; 2 to 4 µg/mL (≈ 2.72 to 5.44 µM) in the assay on E. coli D22; less than 1 µg/mL in the assay on E. coli AG100; less than 1 µg/mL in assay [1] (setting [2]). The MIC with E. coli AG100A is less than 1 µg/mL.
For `O=C(O)c1cccc2c1OB(O)[C@@H](NC(=O)[C@H](NC(=O)N1CCN(Cc3cc(F)c(O)c(O)c3Cl)C(=O)C1=O)c1ccc(P(=O)(O)O)cc1)C2` [Example 504, (R)-3-((R)-2-(4-(2-chloro-5-fluoro-3,4-dihydroxybenzyl)-2,3-dioxopiperazine-1-carboxamido)-2-(4-phosphonophenyl)acetamido)-2-hydroxy-3,4-dihydro-2H-benzo[e][1,2]oxaborinine-8-carboxylic acid], the MIC in the assay with E. coli 901C was less than 1 µg/mL; in the assay on K. pneumoniae 848844, 2 to 4 µg/mL (≈ 2.72 to 5.44 µM); in the assay with K. pneumoniae UMM, 2 to 4 µg/mL (≈ 2.72 to 5.44 µM); with E. coli ATCC 25922 it was less than 1 µg/mL; with A. baumannii ATCC 19606, less than 1 µg/mL; with K. pneumoniae SI-117, 2 to 4 µg/mL (≈ 2.72 to 5.44 µM). Besides, the MIC is less than 1 µg/mL in the assay with P. aeruginosa ATCC 27853; less than 1 µg/mL in the assay with P. aeruginosa ATCC 35151; 2 to 4 µg/mL (≈ 2.72 to 5.44 µM) in the assay on E. coli D22; less than 1 µg/mL in the assay on E. coli AG100; less than 1 µg/mL in assay [1] (Pseudomonas aeruginosa, read-out: MIC P. aeruginosa ΔmexAB-oprM); less than 1 µg/mL in the assay on E. coli AG100A.
Regarding `O=C(O)c1c(F)ccc2c1OB(O)[C@@H](NC(=O)C(NC(=O)N1CCN(S(=O)(=O)c3ccc(O)c(O)c3Cl)C1=O)c1ccc(P(=O)(O)O)cc1)C2` (stereo partly drawn) [Example 505, (3R)-3-(2-(3-((2-chloro-3,4-dihydroxyphenyl)sulfonyl)-2-oxoimidazolidine-1-carboxamido)-2-(4-phosphonophenyl)acetamido)-7-fluoro-2-hydroxy-3,4-dihydro-2H-benzo[e][1,2]oxaborinine-8-carboxylic acid], the MIC in the assay with E. coli 901C, in the assay on K. pneumoniae 848844, with K. pneumoniae UMM, in the assay on E. coli ATCC 25922, with A. baumannii ATCC 19606 and with K. pneumoniae SI-117 was less than 1 µg/mL each time. For the same molecule, the MIC (in the assay with P. aeruginosa ATCC 27853; in the assay on P. aeruginosa ATCC 35151; in the assay with E. coli D22; with E. coli AG100; in assay [1] (setting [2]); in the assay on E. coli AG100A) was less than 1 µg/mL throughout.
`O=C(O)c1c(F)ccc2c1OB(O)[C@@H](NC(=O)[C@H](NC(=O)N1CCN(S(=O)(=O)c3ccc(O)c(O)c3Cl)C1=O)c1ccc(P(=O)(O)O)cc1)C2` [Example 506, (R)-3-((R)-2-(3-((2-chloro-3,4-dihydroxyphenyl)sulfonyl)-2-oxoimidazolidine-1-carboxamido)-2-(4-phosphonophenyl)acetamido)-7-fluoro-2-hydroxy-3,4-dihydro-2H-benzo[e][1,2]oxaborinine-8-carboxylic acid]: the MIC with E. coli 901C was less than 1 µg/mL; in the assay on K. pneumoniae 848844 it was 2 to 4 µg/mL (≈ 2.64 to 5.29 µM); with K. pneumoniae UMM it was less than 1 µg/mL; with E. coli ATCC 25922, less than 1 µg/mL; in the assay on A. baumannii ATCC 19606 it was less than 1 µg/mL; in the assay on K. pneumoniae SI-117, less than 1 µg/mL. Moreover, the MIC (in the assay on P. aeruginosa ATCC 27853; with P. aeruginosa ATCC 35151; with E. coli D22; with E. coli AG100; in assay [1] (setting [2]); in the assay on E. coli AG100A) was less than 1 µg/mL each time.
On to `O=C(O)c1cccc2c1OB(O)[C@@H](NC(=O)[C@H](NC(=O)N1CCN(S(=O)(=O)c3ccc(O)c(O)c3Cl)C1=O)c1ccc(P(=O)(O)O)cc1)C2` [Example 509, (R)-3-((R)-2-(3-((2-chloro-3,4-dihydroxyphenyl)sulfonyl)-2-oxoimidazolidine-1-carboxamido)-2-(4-phosphonophenyl)acetamido)-2-hydroxy-3,4-dihydro-2H-benzo[e][1,2]oxaborinine-8-carboxylic acid], for which the MIC with E. coli 901C, in the assay with K. pneumoniae 848844, with K. pneumoniae UMM, with E. coli ATCC 25922, in the assay with A. baumannii ATCC 19606 and with K. pneumoniae SI-117 was less than 1 µg/mL each time. In addition, the MIC (in the assay on P. aeruginosa ATCC 27853; in the assay with P. aeruginosa ATCC 35151; in the assay with E. coli D22; with E. coli AG100; in assay [1] (setting [2]); with E. coli AG100A) was less than 1 µg/mL each time.
